The source of these data is patent publication US11917960B2, “Methods to improve genetic transformation of sorghum” (Commonwealth Scientific and Industrial Research Organisation, priority 2016, dated 2024).

Marks after values point to notes of the source that are not given here.

Assay type in all cases: cell-based, Sorghum bicolor L
Data set [1] has as its system immature embryos (IEs). The data set is described as follows: DEC tissue yield on CIM with or without LA. To be noted: for DEC yield in number ~5 mm each: CIM + 1 mg/l LA, 45 IEs. From the text: After 4 to 12 weeks of culture, the number of DEC tissues obtained were counted. The number of DEC tissue pieces (˜5 mm) obtained at 12 weeks on CIM with LA was almost double when compared to using CIM without LA. Furthermore, the quality of the DEC tissues obtained on CIM with LA was improved compared to using the medium without LA.

For data set [2], the system named is immature embryos (IEs). The data set is described as follows: DEC tissue induction from immature embryos on CIM with or without LA. The settings on record: for Green tissue induction frequency: CIM + 1 mg/l LA, 6 weeks culture, mean ± SD, frequency calculated as a percentage, in %. As for the experimental part: Plants of the grain sorghum of the inbred cultivar TX-430 (Miller 1984) were grown in a plant growth chamber (Conviron, PGC-20 flex) at 28±1° C. “day” temperature and 20±1° C. “night” temperature, with a. 16 hr photoperiod at a light intensity during the “day” of 900-1000 LUX. Panicles were covered with white translucent paper bags before flowering. Immature embryos were harvested from panicles 12-15 days after anthesis. Panicles were washed several times with water and developing seeds that were uniform in size were isolated and surface-sterilized using 20% commercial bleach mixed with 0.1% Tween-20 for 15-20 min. They were then washed with sterile distilled water 3 times each for 20 min, and blotted dry in a laminar flow hood. Immature embryos (IEs) ranging from 1.4 to 2.5 mm in length were aseptically isolated in the laminar flow hood and used as the starting tissue for preparation of green regenerative tissue.
The isolated IEs ranging from 1.4 to 2.5 mm in length were placed onto callus induction media (CIM) of various compositions with their scutellum facing upward. CIM modified to improve callus quality and induction frequency from immature embryos, as well as callus regeneration media, included α-Lipoic acid (1 to 5 mg/1), Melatonin (5 to 10 mg/l) and 2-Aminoidan-2-phosphonic acid HCl (1 to 2 mg/l) unless otherwise stated. For the development of green tissue, immature embryos were incubated under fluorescent light of approximately 45-50 μmol s^−1 m^−2 (16 h/day) in a tissue culture room at 24±2° C. After three days of culture, the root and shoot poles of the immature embryos were aseptically separated and re-inoculated on to the same media (CIM) and maintained under the same conditions as described above. They were subcultured every two weeks for 6 weeks by chopping the callus into 2-3 mm portions, re-inoculating on to the same media (CIM) and maintaining under the same conditions described above, after which time the tissue cultures were evaluated for callus quality, callus induction efficiency and transformation efficiency. Callus induction frequency was calculated as the number of calli obtained (˜5 mm) over total number of immature embryos inoculated, as a percentage.
Sets of IEs ranging from 1.4 to 2.5 mm in length, each set isolated from one panicle, were aseptically isolated and cultured on CIM medium as described in Example 1. Some sets were cultured with the addition of α-Lipoic acid (LA, 1 mg/I or 5 mg/), others without, in order to determine the effect of this agent.
After 6 weeks of culture including subculture every two weeks onto the same medium, DEC tissue induction frequency and quality were evaluated. […]

For the next data set, the system named is DEC tissue of sorghum. The data set is described as follows: Regeneration frequency and number of shoots per DEC tissue on SIM and SRM. To be noted: for Number of shoots/callus / Regeneration frequency (%): LA in SIM and SRM, mean ± SD. The protocol:
After six weeks on the CIM, some uniform green-coloured DEC tissue of about 4-7 mm diameter were transferred on to shoot induction medium (SIM) and cultured for another 2-3 weeks in order to begin organogenesis. Tissues which had induced shoot buds were then transferred to shoot regeneration medium (SRM) and again cultured for 2-3 weeks. Regenerability of DEC tissue of different ages (2-6 months from initiation) was also tested on SRM medium comprising different concentrations of BAP (0.5-1.0 mg/l) and TDZ (0.5-1.0 mg/l). The number of shoots were counted and the regeneration frequency (i.e. the number of shoots/DEC tissue) was calculated after 3 weeks culture on SRM (total of approximately 5 weeks culture inclusive of culture on SIM and SRM). Individual shoots approximately 2-3 cm in length were transferred to shoot out growth (SOG) medium and cultured for another 2-3 weeks. Well-developed shoots (4-5 cm in length), were carefully separated from the cluster and transferred to root induction medium (RIM) and cultured for 3-4 weeks. For shoot induction to complete plant regeneration, 50-60 μmol s^−1 m^−2 (16 h/day) fluorescent light was used in the tissue culture room at 24±2° C. Shoots (about 8 cm in length) with numerous (often 15-20) healthy looking roots were transferred to soil and grown to maturity in a PC2 glasshouse at […]. The optimized culture medium composition for the different stages of plant transformation from callus induction to plant regeneration from green tissue induced from immature embryos is presented in Table 1.
Uniform ready-to-use high quality green DEC tissues (5 mm) each with nodular structures induced on CIM medium with or without added LA were transferred to shoot induction medium (SIM) with and without LA and cultured for another 2-3 weeks. Tissues with induced shoot buds were then transferred to shoot regeneration medium (SRM) with or without added LA and again cultured for 2 weeks. Regenerability of green tissues of different ages (2-6 months from initiation) was tested on SRM medium containing different concentrations of BAP (0.5-1.0 mg/l) and TDZ (0.5-1.0 mg/l). Tissues including the shoot buds were again cultured on hormone free medium (SOG) with or without LA. The number of shoots was counted after 2 weeks of culture on SRM and the regeneration frequency (number of shoots/DEC tissue) calculated.

Data set [3] deals with DEC tissues/somatic embryos. The data set is described as follows: Sensitivity of DEC tissues/somatic embryos to Geneticin. The settings on record: for Green DEC tissue survival (%): CIM + 1 mg/l LA, 6 weeks culture. The protocol: The experiment was carried out using 6 weeks-old uniform, healthy green-coloured DEC tissues about 5 mm in size and which contained some somatic embryos, produced after culturing on CIM containing 1 mg/l LA. The Geneticin levels used were 0, 15, 25, 35 and 45 mg/L, respectively. Three replicates each of 15 green DEC tissue pieces per plate were used for each concentration of Geneticin tested. The tissues were cultured for 6 weeks, being subcultured every two weeks onto the same medium, including the same Geneticin concentrations.
After 6 weeks of culture, the number of green DEC tissues that had survived was counted.
DEC tissues (about 5 mm) began to display geneticin stress symptoms on selective callus induction media (CIM with geneticin) within 3 weeks of culture. […] Very few calli (2-6) survived with dead patches. On this basis, geneticin at a final concentration of 25 mg/i was used in the callus induction media for 3 cycles (2 weeks each) and then increased to 30 mg/i for one cycle in shoot induction media (Table 6). Different concentrations of geneticin in CIM and SIM was deemed optimal in preventing shoot regeneration from non-transformed callus.

Where [4] appears, read: after 8 weeks on CIM with G25 and 35 mg/l.

For `O=C(O)CCCCC1CCSS1` (stereo not drawn) [LA, α-Lipoic acid], in the data set on immature embryos (IEs) [1] (12 weeks on CIM with LA), the “Number of DEC tissue pieces (~5 mm) compared to CIM without LA” value is “almost double”. In addition, the “DEC yield in number ~5 mm each” value amounted to 36 in the data set on immature embryos (IEs) [1] (culturing time 4 weeks); 90 in the data set with immature embryos (IEs) [1] (culturing time 6 weeks); 120 with immature embryos (IEs) [1] (culturing time 8 weeks); 218 in the data set with immature embryos (IEs) [1] (culturing time 10 weeks); 825 in the data set with immature embryos (IEs) [1] (culturing time 12 weeks). In the data set on immature embryos (IEs) [2] (LA 5 mg/l in CIM), the “DEC tissue induction at higher concentration of LA compared to 1 mg/ml” value was “no significant further improvement”. Further, the “Green tissue induction frequency” value was 79.0 ± 6.5 with immature embryos (IEs) [2] (immature embryo size 1.5-2 mm) and 59.0 ± 5.5 with immature embryos (IEs) [2] (immature embryo size >2 mm). Besides, in the data set on immature embryos (IEs) [2] (small immature embryos (1.5-2 mm), significant at p<0.01), the “DEC tissue induction frequency compared to CIM without LA” value is on record as “greater”. Further, the results for the Number of shoots/callus in the data set with DEC tissue of sorghum (DEC tissue age 2 months), in the data set with DEC tissue of sorghum (DEC tissue age 4 months) and in the data set with DEC tissue of sorghum (DEC tissue age 6 months) were 40 ± 4.5^b, 40 ± 1.5^d and 33 ± 2.5^f, respectively. Also, the entries for the “Regeneration frequency (%)” value in the data set on DEC tissue of sorghum (DEC tissue age 2 months), in the data set with DEC tissue of sorghum (DEC tissue age 4 months) and in the data set with DEC tissue of sorghum (DEC tissue age 6 months) were 97.6 ± 2.5%, 97 ± 2.6 % and 94.3 ± 2.0 %, respectively. Moreover, the “Regeneration frequency and number of shoots/DEC tissue for different ages of DEC tissue” value in the data set with DEC tissue of sorghum (LA included in both SIM and SRM, versus without LA) is “did not decline as much”.
`CN[C@@H]1[C@@H](O)[C@@H](O[C@@H]2[C@@H](O)[C@H](O[C@H]3O[C@H]([C@@H](C)O)[C@@H](O)[C@H](O)[C@H]3N)[C@@H](N)C[C@H]2N)OC[C@]1(C)O` [Geneticin]: the “Green DEC tissue survival (%)” value in data set [3] (Geneticin 15 mg/l) is recorded as 80 ± 1.0%; in data set [3] (Geneticin 25 mg/l), 4 ± 2.6%; in data set [3] (Geneticin 35 mg/l), 2 ± 0.5%; in data set [3] (Geneticin 45 mg/l), 0%. Also, the Appearance of calli in data set [3] (setting [4]) is on record as “most of the calli turned dark brown in colour with no signs of survival”. Also, the “Number of calli survived with dead patches” value in data set [3] (setting [4]) is 2-6. In addition, the “Time until DEC tissues began to display geneticin stress symptoms” value in data set [3] (selective callus induction media (CIM with geneticin)) is recorded as ≤ 3 weeks.
